From PubChem BioAssay (NCI)
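Method: 48-hour compound exposure of cells in 96-well plates, five concentrations, linear interpolation of endpoints. TGI is the concentration that stops growth completely.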

How the values were obtained:
Assay in all cases: NCI anticancer screen, dose series, 48 h
786-0 renal = tested on: 786-0 renal
A498 renal = tested on: A498 renal
A549 NSCLC = tested on: A549 NSCLC
ACHN renal = tested on: ACHN renal
CAKI-1 renal = tested on: CAKI-1 renal
CCRF-CEM leukemia = tested on: CCRF-CEM leukemia
COLO 205 colon = tested on: COLO 205 colon
DLD-1 colon = tested on: DLD-1 colon
DMS 114 small cell lung = tested on: DMS 114 small cell lung
DMS 273 small cell lung = tested on: DMS 273 small cell lung
EKVX NSCLC = tested on: EKVX NSCLC
HCC-2998 colon = tested on: HCC-2998 colon
HCT-116 colon = tested on: HCT-116 colon
HCT-15 colon = tested on: HCT-15 colon
HL-60(TB) leukemia = tested on: HL-60(TB) leukemia
HOP-62 NSCLC = tested on: HOP-62 NSCLC
HT29 colon = tested on: HT29 colon
IGROV1 ovarian = tested on: IGROV1 ovarian
K-562 leukemia = tested on: K-562 leukemia
KM12 colon = tested on: KM12 colon
LOX IMVI melanoma = tested on: LOX IMVI melanoma
LXFL 529 NSCLC = tested on: LXFL 529 NSCLC
M14 melanoma = tested on: M14 melanoma
M19-MEL melanoma = tested on: M19-MEL melanoma
MALME-3M melanoma = tested on: MALME-3M melanoma
MOLT-4 leukemia = tested on: MOLT-4 leukemia
NCI-H226 lung = tested on: NCI-H226 lung
NCI-H23 lung = tested on: NCI-H23 lung
NCI-H460 lung = tested on: NCI-H460 lung
NCI-H522 lung = tested on: NCI-H522 lung
OVCAR-3 ovarian = tested on: OVCAR-3 ovarian
OVCAR-4 ovarian = tested on: OVCAR-4 ovarian
OVCAR-5 ovarian = tested on: OVCAR-5 ovarian
OVCAR-8 ovarian = tested on: OVCAR-8 ovarian
RPMI-8226 leukemia = tested on: RPMI-8226 leukemia
SF-268 CNS = tested on: SF-268 CNS
SF-295 CNS = tested on: SF-295 CNS
SF-539 CNS = tested on: SF-539 CNS
SK-MEL-2 melanoma = tested on: SK-MEL-2 melanoma
SK-MEL-28 melanoma = tested on: SK-MEL-28 melanoma
SK-MEL-5 melanoma = tested on: SK-MEL-5 melanoma
SK-OV-3 ovarian = tested on: SK-OV-3 ovarian
SN12C renal = tested on: SN12C renal
SNB-19 CNS = tested on: SNB-19 CNS
SNB-75 CNS = tested on: SNB-75 CNS
SR leukemia = tested on: SR leukemia
SW-620 colon = tested on: SW-620 colon
TK-10 renal = tested on: TK-10 renal
U251 CNS = tested on: U251 CNS
UACC-257 melanoma = tested on: UACC-257 melanoma
UACC-62 melanoma = tested on: UACC-62 melanoma
UO-31 renal = tested on: UO-31 renal
HOP-18 NSCLC = tested on: HOP-18 NSCLC
HOP-92 NSCLC = tested on: HOP-92 NSCLC
KM20L2 colon = tested on: KM20L2 colon
RXF 393 renal = tested on: RXF 393 renal
SNB-78 CNS = tested on: SNB-78 CNS

Measured: TGI

CCOC(=O)C(NC(=O)c1[nH]cnc1/N=N/N(C)C)C(C)C (stereo not given)
not listed: HOP-18 NSCLC | HOP-92 NSCLC | KM20L2 colon | RXF 393 renal | SNB-78 CNS
> 100 µM: all other assays above

Cc1ccc(NC(=O)CC(=O)N2N=C(N(CCC#N)c3cccc(C)c3)CC2c2ccccc2)cc1 (stereo not given)
not listed: A498 renal | CAKI-1 renal | LOX IMVI melanoma | TK-10 renal
> 100 µM: all other assays above
